Assay results reported in patent US7939253B2, “Methods and compositions for the diagnosis and treatment of ewing's sarcoma” (The University of Utah Research Foundation, priority 2007, dated 2011).

Assays:
[1] = test system: A673 Ewing's sarcoma cells; test: Soft agar colony formation in the presence of histone deacetylase inhibitor; assay type: cell-based; conditions: 1.5 uM, versus ethanol carrier, FIG. 6
Description: Cell Culture: Ewing's sarcoma cell lines were grown as described (Lessnick et al., 2002). Following retroviral infection, polyclonal cell populations were prepared by growth in the appropriate selective media. Soft agar assays were performed as described (Lessnick et al., 2002). Tet-A673 cells were generated by infection with pREV-TETOFF (Clontech) and selection with G418. A single clone was then infected with FLAG-EWS/FLI-pREV-TRE, and selected with hygromycin in the presence of 1 ug/ml doxycycline and G418 (Lessnick et al., 2002). Individual clones were tested for induction of FLAG-EWS/FLI as previously described (Lessnick et al., 2002).
To test the effect of a histone deacetylase inhibitor on NKX2.2 activity, A673 Ewing's sarcoma cells were seeded into soft agar in the presence of 1.5 uM tricostatin (TSA), or ethanol (the TSA carrier) (FIG. 6). […] Soft agar colony formation is one measure of oncogenic transformation. Thus, the histone deacetylase inhibitor TSA blocks oncogenic transformation of Ewing's sarcoma cells.

casein kinase II (CKII) = casein kinase II (CKII) (Homo sapiens, UniProt P68400); conditions: 5 μg/ml; cited from earlier work
casein kinase II (CKII), sequence (P68400 whole entry): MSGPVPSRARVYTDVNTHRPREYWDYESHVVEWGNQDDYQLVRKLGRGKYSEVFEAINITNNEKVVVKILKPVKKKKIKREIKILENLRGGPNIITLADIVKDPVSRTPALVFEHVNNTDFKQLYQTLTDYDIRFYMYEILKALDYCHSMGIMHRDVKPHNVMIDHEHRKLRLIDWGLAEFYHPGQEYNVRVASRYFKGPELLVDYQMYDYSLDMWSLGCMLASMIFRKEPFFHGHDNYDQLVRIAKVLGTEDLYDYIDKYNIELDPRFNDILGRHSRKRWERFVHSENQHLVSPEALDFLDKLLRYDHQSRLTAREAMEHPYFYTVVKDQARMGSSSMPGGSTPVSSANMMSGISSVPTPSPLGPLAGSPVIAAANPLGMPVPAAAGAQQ

Molecule | soft agar colony formation (oncogenic transformation) [1] | inhibition of the protein kinase activity of CKII (casein kinase II (CKII)) [%]
CC(/C=C/C(=O)NO)=C\[C@@H](C)C(=O)c1ccc(N(C)C)cc1 [TSA, Trichostatin A] | prevents Ewing's cells from forming colonies in soft agar | –
heparin | – | > 90
